According to publication PMC6044933 (ACS Omega, 2017):
Counter-ions that a name gives are not always drawn. Like-named read-outs stand apart in the source and are kept apart here. One block for each compound: values may come before it.

Assays:
Test in all cases: cells
A2780 = conditions: Homo sapiens, A2780, 72 h
A431 = conditions: Homo sapiens, A-431, 72 h
BE2-C = conditions: Homo sapiens, BE(2)-C, 72 h
Du145 = conditions: Homo sapiens, DU-145, 72 h
H460 = conditions: Homo sapiens, NCI-H460, 72 h
HT29 = conditions: Homo sapiens, HT-29, 72 h
MCF-7 = conditions: Homo sapiens, MCF7, 72 h
MCF10A = conditions: Homo sapiens, MCF-10A, 72 h
MIA = conditions: 72 h
SJ-G2 = conditions: SJ-G2, 72 h
SMA = conditions: SMA, 72 h
U87 = conditions: Homo sapiens, U-87 MG, 72 h

GI50 (A2780; read-out: 10a): > 50 µM | GI50 (A431; read-out: 10a): > 50 µM | GI50 (Du145; read-out: 10a): > 50 µM | GI50 (H460; read-out: 10a): > 50 µM | GI50 (HT29; read-out: 10a): > 50 µM | GI50 (MCF-7; read-out: 10a): > 50 µM | GI50 (MIA; read-out: 10a): > 50 µM | GI50 (U87; read-out: 10a): > 50 µM
Structure (SMILES): CCNC(=O)Nc1ccc(OCCCOc2ccc(NC(=O)NCC)cc2)cc1 [10a, N,N′-[1,3-Propanediylbis(oxy-4,1-phenylene)]bis(N-ethyl)urea]
GI50 (BE2-C; read-out: 10a): > 50 µM | GI50 (MCF10A; read-out: 10a): > 50 µM | GI50 (SJ-G2; read-out: 10a): > 50 µM | GI50 (SMA; read-out: 10a): > 50 µM

GI50 (A2780; read-out: 10b): > 50 µM | GI50 (A431; read-out: 10b): > 50 µM | GI50 (Du145; read-out: 10b): > 50 µM | GI50 (H460; read-out: 10b): > 50 µM | GI50 (HT29; read-out: 10b): > 50 µM | GI50 (MCF-7; read-out: 10b): > 50 µM | GI50 (MIA; read-out: 10b): > 50 µM | GI50 (U87; read-out: 10b): > 50 µM
Structure (SMILES): CCNC(=O)Nc1ccc(OCCCCCOc2ccc(NC(=O)NCC)cc2)cc1 [10b, N,N′-[1,5-Pentanediylbis(oxy-4,1-phenylene)]bis(N-ethyl)urea]
GI50 (BE2-C; read-out: 10b): > 50 µM | GI50 (MCF10A; read-out: 10b): > 50 µM | GI50 (SJ-G2; read-out: 10b): > 50 µM | GI50 (SMA; read-out: 10b): > 50 µM

GI50 (A2780; read-out: 10e): > 50 µM | GI50 (A431; read-out: 10e): > 50 µM | GI50 (Du145; read-out: 10e): > 50 µM | GI50 (H460; read-out: 10e): > 50 µM | GI50 (HT29; read-out: 10e): > 50 µM | GI50 (MCF-7; read-out: 10e): > 50 µM | GI50 (MIA; read-out: 10e): > 50 µM | GI50 (U87; read-out: 10e): > 50 µM
Structure (SMILES): CCNC(=O)Nc1ccc(OC/C=C\COc2ccc(NC(=O)NCC)cc2)cc1 [10e, (Z)-1,1′-((But-2-ene-1,4-diylbis(oxy))bis(4,1-phenylene))bis(3-ethylurea)]
GI50 (BE2-C; read-out: 10e): > 50 µM | GI50 (MCF10A; read-out: 10e): > 50 µM | GI50 (SJ-G2; read-out: 10e): > 50 µM | GI50 (SMA; read-out: 10e): > 50 µM

The next lines start with the compound.

Structure (SMILES): Nc1ccc(OC/C=C\COc2ccc(N)cc2)cc1 [8e, (Z)-4,4′-(But-2-ene-1,4-diylbis(oxy))dianiline hydrochloride]
GI50 (A2780; read-out: 8e): > 50 µM | GI50 (A431; read-out: 8e): > 50 µM | GI50 (BE2-C; read-out: 8e): > 50 µM | GI50 (Du145; read-out: 8e): > 50 µM | GI50 (H460; read-out: 8e): > 50 µM | GI50 (HT29; read-out: 8e): > 50 µM | GI50 (MCF-7; read-out: 8e): > 50 µM | GI50 (MCF10A; read-out: 8e): > 50 µM | GI50 (MIA; read-out: 8e): > 50 µM | GI50 (SJ-G2; read-out: 8e): > 50 µM | GI50 (SMA; read-out: 8e): > 50 µM | GI50 (U87; read-out: 8e): > 50 µM

Structure (SMILES): CCNC(=O)Nc1ccc(OC/C=C\COc2ccc(CCN)cc2)cc1 [13i, (Z)-2-(4-((4-(4-(3-Ethylureido)phenoxy)but-2-en-1-yl)oxy)phenyl)ethan-1-aminium]
GI50 (A2780; read-out: 13i): 18 ± 0.91 µM | GI50 (A431; read-out: 13i): 17 ± 0.75 µM | GI50 (BE2-C; read-out: 13i): 18 ± 3.2 µM | GI50 (Du145; read-out: 13i): 13 ± 0.41 µM | GI50 (H460; read-out: 13i): 21 ± 2.1 µM | GI50 (HT29; read-out: 13i): 15 µM | GI50 (MCF-7; read-out: 13i): 17 ± 0.82 µM | GI50 (MCF10A; read-out: 13i): 19 ± 0.5 µM | GI50 (MIA; read-out: 13i): 28 ± 0.82 µM | GI50 (SJ-G2; read-out: 13i): 24 ± 2.6 µM | GI50 (SMA; read-out: 13i): 28 ± 4.4 µM | GI50 (U87; read-out: 13i): 29 ± 1.4 µM

Structure (SMILES): CCNC(=O)Nc1ccc(OCCCCOc2ccc(NC(=O)NCC)cc2)cc1 [compound 1]
GI50 (A2780; read-out: 1): > 50 µM | GI50 (A431; read-out: 1): > 50 µM | GI50 (BE2-C; read-out: 1): > 50 µM | GI50 (Du145; read-out: 1): > 50 µM | GI50 (H460; read-out: 1): > 50 µM | GI50 (HT29; read-out: 1): > 50 µM | GI50 (MCF-7; read-out: 1): > 50 µM | GI50 (MCF10A; read-out: 1): > 50 µM | GI50 (MIA; read-out: 1): > 50 µM | GI50 (SJ-G2; read-out: 1): > 50 µM | GI50 (SMA; read-out: 1): > 50 µM | GI50 (U87; read-out: 1): > 50 µM

Structure (SMILES): O=C(O)c1ccc(OC/C=C\COc2ccc(C(=O)O)cc2)cc1 [compound 18, (Z)-4,4′-(But-2-ene-1,4-diylbis(oxy))dibenzoic Acid]
GI50 (A2780; read-out: 18): > 50 µM | GI50 (A431; read-out: 18): > 50 µM | GI50 (BE2-C; read-out: 18): > 50 µM | GI50 (Du145; read-out: 18): > 50 µM | GI50 (H460; read-out: 18): > 50 µM | GI50 (HT29; read-out: 18): > 50 µM | GI50 (MCF-7; read-out: 18): > 50 µM | GI50 (MCF10A; read-out: 18): > 50 µM | GI50 (MIA; read-out: 18): > 50 µM | GI50 (SJ-G2; read-out: 18): > 50 µM | GI50 (SMA; read-out: 18): > 50 µM | GI50 (U87; read-out: 18): > 50 µM

Structure (SMILES): N=C(N)NN=Cc1ccc(OC/C=C\COc2ccc(C=NNC(=N)N)cc2)cc1 [compound 22]
GI50 (A2780; read-out: 22): 2.4 ± 0.14 µM | GI50 (A431; read-out: 22): 2.2 ± 0.11 µM | GI50 (BE2-C; read-out: 22): 2.3 ± 0.13 µM | GI50 (Du145; read-out: 22): 1.7 ± 0.12 µM | GI50 (H460; read-out: 22): 2.2 ± 0.065 µM | GI50 (HT29; read-out: 22): 2.1 ± 0.05 µM | GI50 (MCF-7; read-out: 22): 2.3 ± 0.1 µM | GI50 (MCF10A; read-out: 22): 2.8 ± 0.15 µM | GI50 (MIA; read-out: 22): 2.4 ± 0.14 µM | GI50 (SJ-G2; read-out: 22): 1.8 ± 0.048 µM | GI50 (SMA; read-out: 22): 2.9 µM | GI50 (U87; read-out: 22): 2 ± 0.1 µM
